{"source": "patent US12144786B2", "about": "(priority 2020, dated 2024)", "key": {"chronic anorexia nervosa": {"system": "chronic anorexia nervosa", "assay": "Case study: ketogenic diet followed by IV ketamine infusions in a patient with chronic anorexia nervosa", "format": "in vivo, human"}, "patients": {"system": "patients", "settings": "usually; rarely longer than 2 hours; cited from earlier work"}, "healthy volunteers": {"system": "healthy volunteers", "settings": "80-minute infusion of 0.4 or 0.8 mg/kg, 3 days later; cited from earlier work"}, "[1]": {"settings": "up to 4 doses of 0.1-0.5 mg/kg IV over 2 weeks, 8-month follow-up; cited from earlier work"}, "[2]": {"system": "patients with eating disorders", "settings": "10-hour infusions of 20 mg/hour; cited from earlier work"}, "[3]": {"settings": "10 4-hour infusions of up to 20 mg/hour; cited from earlier work"}, "[4]": {"system": "patients treated for depression", "settings": "6630 patients, six or more repeated parenteral infusions for depression; cited from earlier work"}, "[5]": {"settings": "in vivo; cited from earlier work"}, "[6]": {"settings": "in vivo; cited from earlier work", "remark": "listed apart in the source"}, "[7]": {"system": "animal models of brain injury and stroke", "settings": "cited from earlier work"}, "[8]": {"settings": "in vivo; cited from earlier work", "remark": "listed apart in the source"}, "[9]": {"system": "rodent models of depression", "settings": "cited from earlier work"}, "[10]": {"settings": "in vivo, cited from earlier work"}}, "note": "Ends that are not written are not given here."}
{"molecule": "CNC1(c2ccccc2Cl)CCCCC1=O", "note": "(racemic) [ketamine, (RS)-2-(2-chlorophenyl)-2-(methylamino)cyclohexanone]", "values": [{"measurement": "onset of effect on anorexic thoughts (AN voice) after first infusion", "setting": "chronic anorexia nervosa; 40-minute IV infusion 0.75 mg/kg (42.68 mg) after 3 months on ketogenic diet, moderate ketosis for 14 days", "value": "Within one hour, they felt the AN voice was weakening"}, {"measurement": "anorexia symptoms by the end of treatment", "setting": "chronic anorexia nervosa; four infusions over 15 days (0.75, 1.0, 1.1, 1.2 mg/kg) on ketogenic diet", "value": "they no longer felt anorexic any more"}, {"measurement": "compulsive exercise by the end of treatment", "setting": "chronic anorexia nervosa; four infusions over 15 days on ketogenic diet", "value": "They could exercise and stop exercising at their own wish"}, {"measurement": "BMI", "setting": "chronic anorexia nervosa; throughout the treatment (duration 15 days) and months after", "value": "~20.8"}, {"measurement": "duration of dissociative symptoms", "setting": "patients", "value": "less than 60 minutes"}, {"measurement": "residual effects", "setting": "healthy volunteers", "value": "does not result in any residual effects"}, {"measurement": "adverse events", "setting": "[1]", "value": "no adverse events"}, {"measurement": "side effects (headache, nausea, sedation, revival of distant memories)", "setting": "[2]", "value": "no longer occurred after the first infusion or were no longer seen as unpleasant"}, {"measurement": "patients experiencing restlessness, headaches, or significant heart rate increases", "setting": "[3]", "value": "7-13%"}, {"measurement": "patients with a side effect that led to discontinuation of treatment", "setting": "[4]", "value": 0.7, "unit": "%"}]}
{"molecule": "N[C@@]1(c2ccccc2Cl)CCC[C@@H](O)C1=O", "note": "[(2R,6R)-HNK]", "values": [{"measurement": "hypnotic effect", "setting": "[5]", "value": "non-hypnotic"}, {"measurement": "role in antidepressant effects of ketamine", "setting": "[5]", "value": "essential for the antidepressant effects of ketamine"}]}
{"molecule": "CN[C@@]1(c2ccccc2Cl)CCCCC1=O", "note": "[(R)-ketamine]", "values": [{"measurement": "antidepressant effects and psychotomimetic side effects", "setting": "[6]", "value": "rapid-onset and sustained antidepressant effects without psychotomimetic side effects"}]}
{"molecule": "C[C@@H]([C@@H](O)c1ccc(O)cc1)N1CCC(O)(c2ccccc2)CC1", "note": "[CP-101,606]", "values": [{"measurement": "protection", "setting": "[7]", "value": "protective"}]}
{"molecule": "Cc1ncc2n1-c1ccc(Cl)cc1C(c1ccccc1F)=NC2", "note": "[Midazolam]", "values": [{"measurement": "half-life (t½)", "setting": "[8]", "value": 2.5, "unit": "h"}]}
{"molecule": "C[C@@H](CN1CCC(Cc2ccccc2)CC1)[C@@H](O)c1ccc(O)cc1", "note": "[Ro 25-6981]", "values": [{"measurement": "antidepressant actions", "setting": "[9]", "value": "rapid antidepressant actions"}]}
{"molecule": "Thr-Pro-Pro-Thr-NH2 (TPPT-NH2) [Rapastinel, amidated tetrapeptide, NMDA receptor glycine site partial agonist]", "values": [{"measurement": "oral activity", "setting": "[10]; po", "value": "not active orally"}, {"measurement": "blood brain barrier crossing", "setting": "[10]", "value": "rapidly crosses the blood brain barrier"}]}
